The record followed here is ChEMBL document CHEMBL3228009, “Hypobetalipoproteinemic agents. 2. Compounds related to 4-(1-adamantyloxy)aniline” (J Med Chem, 1979).

Data set [1] deals with Rattus norvegicus. The data set is described as follows: Hypobetalipoproteinemic activity in diet-induced hypercholesteremic rat model assessed as decrease in heparin precipitating lipoproteins at 50 mg/kg, po relative to control. In kind it is functional.
Data set [2] concerns Rattus norvegicus. Description: Hypobetalipoproteinemic activity in diet-induced hypercholesteremic rat model assessed as decrease in total serum cholesterol at 50 mg/kg, po relative to control. It counts as functional.
For data set [3], the system named is Rattus norvegicus. The data set is described as follows: Toxicity in diet-induced hypercholesteremic rat model assessed as increase in body weight at 50 mg/kg, po relative to control. It counts as organism-based. Set-up: dose 50 mg/kg, route oral. The following applies: in vivo.
For data set [4], the species on record is Rattus norvegicus. The data set is described as follows: Selectivity ratio of T/C for heparin precipitating lipoproteins to T/C for total serum cholesterol in diet-induced hypercholesteremic rat model. In kind it is functional.
Data set [5] concerns Rattus norvegicus. The data set is described as follows: Toxicity in diet-induced hypercholesteremic rat model assessed as increase in food intake at 50 mg/kg, po relative to control. It counts as organism-based. To be noted: in vivo. Set-up: dose 50 mg/kg, route oral.

As to `OC12CC3CC(CC(C3)C1)C2`, the figures for the T/C in data set [1] and in data set [2] were 0.98 and 0.94, respectively. In addition, the values for the Activity in data set [3] and in data set [5] were > 63% and > 73%, respectively. In data set [4], the Selectivity ratio was 1.04.
Regarding `Fc1cc(N2CCCC2)ccc1OC12CC3CC(CC(C3)C1)C2`, the T/C in data set [1] stood at 0.82; in data set [2], 0.8. Moreover, the results for the Activity in data set [3] and in data set [5] were > 63% and > 73%, respectively. Further, the Selectivity ratio in data set [4] was 1.02.
The corresponding values for `Nc1ccc(OC23CC4CC(CC(C4)C2)C3)cc1F` are 0.24, 0.35, > 63%, > 73% and 0.68.
Regarding `CC(=O)Nc1ccc(OC23CC4CC(CC(C4)C2)C3)cc1F`, the T/C in data set [1] worked out at 0.35; in data set [2] it was 0.62. In addition, the Activity in data set [3] is > 63%; in data set [5], > 73%. Moreover, the Selectivity ratio in data set [4] turned out to be 0.55.
With `Fc1cc(OC23CC4CC(CC(C4)C2)C3)ccc1N1CCCC1`, the figures for the T/C in data set [1] and in data set [2] were 0.3 and 0.58, respectively. The values for the Activity in data set [3] and in data set [5] were > 63% and > 73%, respectively. The Selectivity ratio in data set [4] is recorded as 0.51.
The corresponding values for `Cl.Nc1ccc(OC23CC4CC(CC(C4)C2)C3)c(Cl)c1` are 0.43, 0.63, > 63%, > 73% and 0.68.
`Clc1cc(N2CCCC2)ccc1OC12CC3CC(CC(C3)C1)C2`: the values for the T/C in data set [1] and in data set [2] were 1.07 and 1.08, respectively. Besides, the Activity is given as > 63% in data set [3] and > 73% in data set [5]. For the same compound, in data set [4], the Selectivity ratio was determined as 0.98.
For the compound `Cc1cc(N)cc(C)c1OC12CC3CC(CC(C3)C1)C2.Cl`, the T/C in data set [1] is 0.8; in data set [2], 0.86. The Activity in data set [3] was > 63%; in data set [5], > 73%. Also, the Selectivity ratio in data set [4] is given as 0.93.
For `Cc1cc(N2CCCC2)cc(C)c1OC12CC3CC(CC(C3)C1)C2`, the T/C in data set [1] was 0.78; in data set [2], 0.81. The results for the Activity in data set [3] and in data set [5] were > 63% and > 73%, respectively. In addition, in data set [4], the Selectivity ratio is 0.96.
In the case of `CSCc1cc(OC23CC4CC(CC(C4)C2)C3)ccc1N`, the T/C is given as 0.38 in data set [1] and 0.49 in data set [2]. For the same compound, the Activity is > 63% in data set [3] and > 73% in data set [5]. In data set [4], the Selectivity ratio is given as 0.76.
With `Cc1cc(OC23CC4CC(CC(C4)C2)C3)ccc1N`, the T/C in data set [1] is reported as 0.25; in data set [2], 0.64. The Activity is on record as < 63% in data set [3] and < 73% in data set [5]. In addition, the Selectivity ratio in data set [4] was 0.38.
For the compound `CSCc1cc(OC23CC4CC(CC(C4)C2)C3)cc(C)c1N`, the T/C in data set [1] amounted to 0.85; in data set [2] it was 0.88. The results for the Activity in data set [3] and in data set [5] were > 63% and > 73%, respectively. The Selectivity ratio in data set [4] is on record as 0.96.
For the compound `Cc1cc(OC23CC4CC(CC(C4)C2)C3)cc(C)c1N`, the results for the T/C in data set [1] and in data set [2] were 0.72 and 0.77, respectively. The Activity was > 63% in data set [3] and > 73% in data set [5]. Besides, in data set [4], the Selectivity ratio is given as 0.93.
On to `Cc1cc(OC23CC4CC(CC(C4)C2)C3)cc(C)c1N1CCCC1`, for which the values for the T/C in data set [1] and in data set [2] were 1.28 and 1.18, respectively. The Activity was > 63% in data set [3] and > 73% in data set [5]. Besides, in data set [4], the Selectivity ratio was found to be 1.08.
Consider `Cl.Nc1ccc(C23CC4CC(CC(C4)C2)C3)cc1`, for which the T/C is reported as 1.4 in data set [1] and 1.41 in data set [2]. The values for the Activity in data set [3] and in data set [5] were > 63% and > 73%, respectively. Moreover, the Selectivity ratio in data set [4] turned out to be 0.99.
